Experimental findings from patent US11739078B2, “Methods of inhibiting kinases” (INSILICO MEDICINE IP LIMITED, priority 2019, dated 2023) are described below.

Structures are written as SMILES. pIC50: −log10 of the molar value. Read-outs that look alike come from different tables or passages of the source.

The target of one experiment is TNIK (Homo sapiens (Human), UniProt Q9UKE5). Nature of the experiment: TNIK enzymatic assay (radiometric kinase inhibition). It is filed as biochemical. As for the experimental part:
The compounds were studied for function as TNIK inhibitors to generate the data of Table 1. […] (specific activity and concentration as required). The reaction is initiated by the addition of the Mg/ATP mix. After incubation for 40 minutes at room temperature, the reaction is stopped by the addition of phosphoric acid to a concentration of 0.5%.

The next experiment concerns the target MAP4K4 (h) (Homo sapiens (Human), UniProt O95819). Nature of the experiment: MAP4K4 in vitro kinase assay (radiometric). The class given is biochemical. The following applies: read-out: MAP4K4_IC50. Here is the method: (specific activity and concentration as required). The reaction is initiated by the addition of the Mg/ATP mix. After incubation for 40 minutes at room temperature, the reaction is stopped by the addition of phosphoric acid to a concentration of 0.5%.

Where [1] appears, read: TNIK enzymatic assay, Table 1, read-out: IC50.

MAP4K4 (h), sequence (O95819 whole entry): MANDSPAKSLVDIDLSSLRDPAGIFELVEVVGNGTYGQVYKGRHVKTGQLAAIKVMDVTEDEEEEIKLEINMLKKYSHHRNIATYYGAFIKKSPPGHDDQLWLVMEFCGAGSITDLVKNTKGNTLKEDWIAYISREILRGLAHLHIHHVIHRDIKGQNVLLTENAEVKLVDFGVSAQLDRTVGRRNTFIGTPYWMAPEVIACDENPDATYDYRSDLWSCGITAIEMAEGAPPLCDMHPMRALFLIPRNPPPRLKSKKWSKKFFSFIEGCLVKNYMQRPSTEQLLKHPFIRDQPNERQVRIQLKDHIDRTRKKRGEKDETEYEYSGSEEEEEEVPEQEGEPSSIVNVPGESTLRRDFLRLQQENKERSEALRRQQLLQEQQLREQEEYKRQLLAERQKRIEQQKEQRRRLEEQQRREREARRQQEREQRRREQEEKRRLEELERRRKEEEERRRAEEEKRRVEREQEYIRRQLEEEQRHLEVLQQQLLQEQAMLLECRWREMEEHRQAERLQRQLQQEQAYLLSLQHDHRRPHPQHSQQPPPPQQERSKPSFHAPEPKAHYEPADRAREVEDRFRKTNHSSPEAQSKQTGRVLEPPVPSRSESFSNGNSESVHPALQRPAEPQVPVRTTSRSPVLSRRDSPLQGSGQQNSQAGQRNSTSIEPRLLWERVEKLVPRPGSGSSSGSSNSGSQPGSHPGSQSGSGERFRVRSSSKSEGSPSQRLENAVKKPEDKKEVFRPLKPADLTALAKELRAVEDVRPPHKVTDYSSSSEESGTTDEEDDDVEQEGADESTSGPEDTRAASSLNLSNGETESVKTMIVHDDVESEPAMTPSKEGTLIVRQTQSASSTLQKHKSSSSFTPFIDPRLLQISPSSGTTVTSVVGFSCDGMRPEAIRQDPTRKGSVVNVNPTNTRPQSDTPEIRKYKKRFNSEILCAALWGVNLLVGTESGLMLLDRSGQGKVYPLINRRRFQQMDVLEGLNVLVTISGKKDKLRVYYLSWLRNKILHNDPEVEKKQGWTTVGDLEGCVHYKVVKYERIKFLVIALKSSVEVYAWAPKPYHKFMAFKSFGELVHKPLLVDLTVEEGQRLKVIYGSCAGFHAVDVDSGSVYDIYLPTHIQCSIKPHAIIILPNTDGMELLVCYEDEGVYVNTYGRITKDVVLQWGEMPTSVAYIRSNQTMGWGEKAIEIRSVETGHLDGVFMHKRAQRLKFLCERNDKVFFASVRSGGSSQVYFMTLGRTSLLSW
TNIK, sequence (Q9UKE5 whole entry): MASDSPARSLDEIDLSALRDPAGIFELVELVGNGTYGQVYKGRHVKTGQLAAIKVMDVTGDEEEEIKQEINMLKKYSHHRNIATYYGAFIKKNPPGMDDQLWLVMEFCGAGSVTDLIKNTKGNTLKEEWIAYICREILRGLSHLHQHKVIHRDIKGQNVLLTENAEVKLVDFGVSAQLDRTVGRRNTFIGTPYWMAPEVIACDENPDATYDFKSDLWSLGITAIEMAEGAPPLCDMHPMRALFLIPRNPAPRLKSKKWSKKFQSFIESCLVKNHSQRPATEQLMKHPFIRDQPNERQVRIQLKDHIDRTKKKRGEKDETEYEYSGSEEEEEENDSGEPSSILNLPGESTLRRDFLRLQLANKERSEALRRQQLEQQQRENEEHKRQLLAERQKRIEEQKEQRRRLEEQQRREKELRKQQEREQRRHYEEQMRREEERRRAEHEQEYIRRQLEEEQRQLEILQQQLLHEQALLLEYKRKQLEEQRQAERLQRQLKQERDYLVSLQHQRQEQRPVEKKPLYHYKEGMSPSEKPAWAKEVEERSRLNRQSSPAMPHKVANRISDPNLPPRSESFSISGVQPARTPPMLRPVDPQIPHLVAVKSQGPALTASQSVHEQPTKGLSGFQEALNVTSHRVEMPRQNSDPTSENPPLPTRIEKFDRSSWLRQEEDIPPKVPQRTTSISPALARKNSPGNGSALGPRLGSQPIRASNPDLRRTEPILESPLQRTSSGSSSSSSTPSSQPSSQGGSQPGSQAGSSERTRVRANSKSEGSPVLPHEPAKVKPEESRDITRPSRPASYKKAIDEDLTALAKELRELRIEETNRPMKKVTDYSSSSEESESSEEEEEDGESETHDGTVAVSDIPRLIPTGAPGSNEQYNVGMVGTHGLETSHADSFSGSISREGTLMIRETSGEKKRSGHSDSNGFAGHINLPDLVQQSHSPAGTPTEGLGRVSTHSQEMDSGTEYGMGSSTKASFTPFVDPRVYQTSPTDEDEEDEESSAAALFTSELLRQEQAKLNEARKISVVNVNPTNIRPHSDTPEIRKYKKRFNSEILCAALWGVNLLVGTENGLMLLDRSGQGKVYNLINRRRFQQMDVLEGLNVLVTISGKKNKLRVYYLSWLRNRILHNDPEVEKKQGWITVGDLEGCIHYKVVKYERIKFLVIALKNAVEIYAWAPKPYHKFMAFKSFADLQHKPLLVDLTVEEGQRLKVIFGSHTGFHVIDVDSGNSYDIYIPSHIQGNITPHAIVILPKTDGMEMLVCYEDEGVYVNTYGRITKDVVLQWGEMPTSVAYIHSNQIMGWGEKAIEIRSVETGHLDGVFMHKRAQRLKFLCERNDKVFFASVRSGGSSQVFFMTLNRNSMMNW

`Cc1cc(NC(=O)c2ccc(-c3c(-c4ccc(F)cc4)ncn3C3COC3)o2)c(F)cn1` [Compound A-48, N-(5-fluoro-2-methylpyridin-4-yl)-5-(4-(4-fluorophenyl)-1-(oxetan-3-yl)-1H-imidazol-5-yl)furan-2-carboxamide]: the pIC50 on TNIK (read-out: TNIK_IC50) is 7.30; at MAP4K4 (h) it was 6.71.

`O=C(Nc1ccc(Cl)cc1)c1ccc(-c2c(-c3ccc(F)cc3)ncn2C2CCCCC2)o1` [Compound 56, N-(4-chlorophenyl)-5-(1-cyclohexyl-4-(4-fluorophenyl)-1H-imidazol-5-yl)furan-2-carboxamide]: the values for the pIC50 at TNIK (setting [1]), at TNIK (read-out: TNIK_IC50) and on MAP4K4 (h) were 7.00, 7.00 and 6.71, respectively.

In the case of `Cc1ccc(NC(=O)c2ccc(-c3c(-c4ccc(F)cc4)ncn3C3CCCCC3)o2)cc1Cl` [Compound 66, N-(3-chloro-4-methylphenyl)-5-(1-cyclohexyl-4-(4-fluorophenyl)-1H-imidazol-5-yl)furan-2-carboxamide], the pIC50 on TNIK (setting [1]) is 6.27; at TNIK (read-out: TNIK_IC50), 6.27; at MAP4K4 (h) it was under 6.00.

In the case of `O=C(Nc1ccc(OC(F)(F)F)cc1)c1ccc(-c2c(-c3ccc(F)cc3)ncn2C2CCCC2)o1` [Compound 44, 5-(1-cyclopentyl-4-(4-fluorophenyl)-1H-imidazol-5-yl)-N-(4-(trifluoromethoxy)phenyl)furan-2-carboxamide], the pIC50 on TNIK (setting [1]) was 6.28; at TNIK (read-out: TNIK_IC50) it was 6.28; at MAP4K4 (h) it was 6.21.

`Cc1ccc(NC(=O)c2ccc(-c3c(-c4ccc(F)cc4)ncn3C3CCCCC3)o2)c(Cl)c1` [Compound 68, N-(2-chloro-4-methylphenyl)-5-(1-cyclohexyl-4-(4-fluorophenyl)-1H-imidazol-5-yl)furan-2-carboxamide]: the figures for the pIC50 on TNIK (setting [1]), on TNIK (read-out: TNIK_IC50) and at MAP4K4 (h) were 7.72, 7.72 and 7.14, respectively.

As to `Cc1cccc(C)c1NC(=O)c1ccc(-c2c(-c3ccc(F)cc3)ncn2C2CCCC2)o1` [Compound 21, 5-(1-cyclopentyl-4-(4-fluorophenyl)-1H-imidazol-5-yl)-N-(2,6-dimethylphenyl)furan-2-carboxamide], the pIC50 at TNIK (setting [1]) was 6.67; on TNIK (read-out: TNIK_IC50), 6.67; at MAP4K4 (h) it was under 6.00.

Turning to `COc1ccc(NC(=O)c2ccc(-c3c(-c4ccc(F)cc4)ncn3C3CCCC3)o2)cc1OC` [Compound 11, 5-(1-cyclopentyl-4-(4-fluorophenyl)-1H-imidazol-5-yl)-N-(3,4-dimethoxyphenyl)furan-2-carboxamide], the pIC50 at TNIK (setting [1]) was 7.38; on TNIK (read-out: TNIK_IC50), 7.38; at MAP4K4 (h), 7.03.

In the case of `Cc1ccc(-c2ncn(C3CCCCC3)c2-c2ccc(C(=O)Nc3ccccc3F)o2)cc1` [Compound 7, 5-(1-cyclohexyl-4-(p-tolyl)-1H-imidazol-5-yl)-N-(2-fluorophenyl)furan-2-carboxamide], the pIC50 at TNIK (setting [1]) is 5.82; on TNIK (read-out: TNIK_IC50), 5.82; at MAP4K4 (h), under 6.00.

In the case of `O=C(Nc1ccc(Cl)cc1)c1ccc(-c2c(-c3ccc(F)cc3)ncn2C2CCCC2)o1` [Compound 15, N-(4-chlorophenyl)-5-(1-cyclopentyl-4-(4-fluorophenyl)-1H-imidazol-5-yl)furan-2-carboxamide], the pIC50 on TNIK (setting [1]) was 7.00; on TNIK (read-out: TNIK_IC50) it was 7.00; at MAP4K4 (h), 6.94.

`Cc1ccc(NC(=O)c2ccc(-c3c(-c4ccc(F)cc4)ncn3C3CCCCC3)o2)c(C)c1` [Compound 67, 5-(1-cyclohexyl-4-(4-fluorophenyl)-1H-imidazol-5-yl)-N-(2,4-dimethylphenyl)furan-2-carboxamide]: the pIC50 is 7.11 on TNIK (setting [1]), 7.11 on TNIK (read-out: TNIK_IC50) and 6.61 at MAP4K4 (h).

Regarding `O=C(Nc1cc[nH]c(=O)c1)c1ccc(-c2c(-c3ccc(F)cc3)ncn2C2COC[C@@H]2F)o1` (mixture of isomers) [Compound A-57, rac-5-(4-(4-fluorophenyl)-1-((4R)-4-fluorotetrahydrofuran-3-yl)-1H-imidazol-5-yl)-N-(2-oxo-1,2-dihydropyridin-4-yl)furan-2-carboxamide], the pIC50 at TNIK (read-out: TNIK_IC50) is 5.94.

In the case of `CC(=O)c1ccc(NC(=O)c2ccc(-c3c(-c4ccc(F)cc4)ncn3C3CCCCC3)o2)cc1` [Compound 51, N-(4-acetylphenyl)-5-(1-cyclohexyl-4-(4-fluorophenyl)-1H-imidazol-5-yl)furan-2-carboxamide], the pIC50 on TNIK (setting [1]) is 7.24; on TNIK (read-out: TNIK_IC50) it was 7.24; on MAP4K4 (h) it was 6.90.

`O=C(Nc1ccccc1F)c1ccc(-c2c(-c3cncnc3)ncn2C2CCCC2)o1` [Compound 94, 5-(1-cyclopentyl-4-(pyrimidin-5-yl)-1H-imidazol-5-yl)-N-(2-fluorophenyl)furan-2-carboxamide]: the pIC50 at TNIK (read-out: TNIK_IC50) and on MAP4K4 (h) was under 5.00 throughout.

With `Cc1ccc(NC(=O)c2ccc(-c3c(-c4ccc(F)cc4)ncn3C3CCCC3)o2)cc1` [Compound 47, 5-(1-cyclopentyl-4-(4-fluorophenyl)-1H-imidazol-5-yl)-N-(p-tolyl)furan-2-carboxamide], the results for the pIC50 at TNIK (setting [1]), at TNIK (read-out: TNIK_IC50) and on MAP4K4 (h) were over 8.00, 7.36 and 7.29, respectively.

Take `COc1ccc(NC(=O)c2ccc(-c3c(-c4ccc(F)cc4)ncn3C3CCCCC3)o2)cc1` [Compound 54, 5-(1-cyclohexyl-4-(4-fluorophenyl)-1H-imidazol-5-yl)-N-(4-methoxyphenyl)furan-2-carboxamide]: the pIC50 was 7.22 at TNIK (setting [1]), 7.22 on TNIK (read-out: TNIK_IC50) and 6.97 at MAP4K4 (h).

On to `CC(C)c1ccc(NC(=O)c2ccc(-c3c(-c4ccc(F)cc4)ncn3C3CCCC3)o2)cc1` [Compound 38, 5-(1-cyclopentyl-4-(4-fluorophenyl)-1H-imidazol-5-yl)-N-(4-isopropylphenyl)furan-2-carboxamide], for which the pIC50 at TNIK (setting [1]) is 7.34; at TNIK (read-out: TNIK_IC50), 7.34; on MAP4K4 (h) it was 6.78.

As for `Cc1ccccc1NC(=O)c1ccc(-c2c(-c3ccc(F)cc3)ncn2C2CCCCC2)o1` [Compound 65, 5-(1-cyclohexyl-4-(4-fluorophenyl)-1H-imidazol-5-yl)-N-(o-tolyl)furan-2-carboxamide], the pIC50 on TNIK (setting [1]) was 6.82; at TNIK (read-out: TNIK_IC50) it was 6.82; at MAP4K4 (h), 6.50.

In the case of `Cc1ccccc1NC(=O)c1ccc(-c2c(-c3ccc(F)cc3)ncn2C2CCCC2)o1` [Compound 29, 5-(1-cyclopentyl-4-(4-fluorophenyl)-1H-imidazol-5-yl)-N-(o-tolyl)furan-2-carboxamide], the pIC50 on TNIK (setting [1]) is 7.21; on TNIK (read-out: TNIK_IC50) it was 7.21; at MAP4K4 (h), 6.94.

As to `CC(=O)Nc1ccc(NC(=O)c2ccc(-c3c(-c4ccc(F)cc4)ncn3C3CCCCC3)o2)cc1` [Compound 78, N-(4-acetamidophenyl)-5-(1-cyclohexyl-4-(4-fluorophenyl)-1H-imidazol-5-yl)furan-2-carboxamide], the pIC50 at TNIK (setting [1]) is 7.82; at TNIK (read-out: TNIK_IC50), 7.82; on MAP4K4 (h) it was 7.46.

With `CCOC(=O)c1cccc(NC(=O)c2ccc(-c3c(-c4ccc(F)cc4)ncn3C3CCCC3)o2)c1` [Compound 22, ethyl 3-(5-(1-cyclopentyl-4-(4-fluorophenyl)-1H-imidazol-5-yl)furan-2-carboxamido)benzoate], the pIC50 is 6.32 at TNIK (setting [1]), 6.32 on TNIK (read-out: TNIK_IC50) and under 6.00 on MAP4K4 (h).

As for `CC(=O)c1cccc(NC(=O)c2ccc(-c3c(-c4ccc(F)cc4)ncn3C3CCCC3)o2)c1` [Compound 35, N-(3-acetylphenyl)-5-(1-cyclopentyl-4-(4-fluorophenyl)-1H-imidazol-5-yl)furan-2-carboxamide], the pIC50 on TNIK (setting [1]) is 6.82; at TNIK (read-out: TNIK_IC50), 6.82; on MAP4K4 (h), 6.56.

Regarding `O=C(Nc1ccccc1F)c1ccc(-c2c(-c3ccc(F)cc3)ncn2CC2CCCN2)o1` (centres unmarked) [Compound 88, N-(2-fluorophenyl)-5-(4-(4-fluorophenyl)-1-(pyrrolidin-2-ylmethyl)-1H-imidazol-5-yl)furan-2-carboxamide], the pIC50 at TNIK (setting [1]) is 5.07; at TNIK (read-out: TNIK_IC50) it was 5.07; at MAP4K4 (h), 4.91.

Turning to `CCOC(=O)c1ccc(NC(=O)c2ccc(-c3c(-c4ccc(F)cc4)ncn3C3CCCC3)o2)cc1` [Compound 33, ethyl 4-(5-(1-cyclopentyl-4-(4-fluorophenyl)-1H-imidazol-5-yl)furan-2-carboxamido)benzoate], the results for the pIC50 at TNIK (setting [1]), on TNIK (read-out: TNIK_IC50) and at MAP4K4 (h) were 7.57, 7.57 and 7.06, respectively.

Regarding `Cc1cccc(NC(=O)c2ccc(-c3c(-c4ccc(F)cc4)ncn3C3CCCC3)o2)c1` [Compound 48, 5-(1-cyclopentyl-4-(4-fluorophenyl)-1H-imidazol-5-yl)-N-(m-tolyl)furan-2-carboxamide], the pIC50 on TNIK (setting [1]) was 7.40; at TNIK (read-out: TNIK_IC50) it was 7.40; on MAP4K4 (h), 6.79.

Regarding `COc1cccc(NC(=O)c2ccc(-c3c(-c4ccc(C)cc4)ncn3C3CCCCC3)o2)c1` [Compound 4, 5-(1-cyclohexyl-4-(p-tolyl)-1H-imidazol-5-yl)-N-(3-methoxyphenyl)furan-2-carboxamide], the pIC50 on TNIK (setting [1]) is 5.03; on TNIK (read-out: TNIK_IC50), 5.03; at MAP4K4 (h), under 6.00.

As to `Cc1cc(Cl)ccc1NC(=O)c1ccc(-c2c(-c3ccc(F)cc3)ncn2C2CCCC2)o1` [Compound 16, N-(4-chloro-2-methylphenyl)-5-(1-cyclopentyl-4-(4-fluorophenyl)-1H-imidazol-5-yl)furan-2-carboxamide], the pIC50 is 7.42 at TNIK (setting [1]), 7.42 on TNIK (read-out: TNIK_IC50) and 7.00 at MAP4K4 (h).

Take `CC(=O)c1cccc(NC(=O)c2ccc(-c3c(-c4ccc(F)cc4)ncn3C3CCCCC3)o2)c1` [Compound 71, N-(3-acetylphenyl)-5-(1-cyclohexyl-4-(4-fluorophenyl)-1H-imidazol-5-yl)furan-2-carboxamide]: the pIC50 at TNIK (setting [1]) is 6.82; on TNIK (read-out: TNIK_IC50), 6.82; at MAP4K4 (h), 6.20.
